ChEMBL document CHEMBL4689842, “EUbOPEN Chemogenomics Library wave 1” (2021)

Tested on: HEK-293T
Assay: Incucyte cell viability with HEK293T; note: filed as whole numbers so only -1 and 0 and 1 occur
Assay type: toxicity, cell-based
Settings: human, 10 µM, compound concentration 10 uM
[1] = 6 h, replicate number 1, timepoint 6 hours
[2] = 12 h, replicate number 1, timepoint 12 hours
[3] = 18 h, replicate number 1, timepoint 18 hours
[4] = 24 h, replicate number 1, timepoint 24 hours
[5] = 0 h, replicate number 2, timepoint 0 hours
[6] = 0 h, replicate number 1, timepoint 0 hours
[7] = 12 h, replicate number 2, timepoint 12 hours
[8] = 24 h, replicate number 2, timepoint 24 hours

SMILES | Growth Rate [1] | Growth Rate [2] | Growth Rate [3] | Growth Rate [4] | Growth Rate [5] | Growth Rate [6] | Growth Rate [7] | Growth Rate [8] | Growth Rate (6 h, replicate number 2, timepoint 6 hours)
CCN1CCN(c2ccc(Nc3cc(N(C)C(=O)Nc4c(Cl)c(OC)cc(OC)c4Cl)ncn3)cc2)CC1 [INFIGRATINIB] | 0 | 0 | 0 | 0 |  |  |  |  | 
CN1CCC(=C2c3ccccc3CC(=O)c3sccc32)CC1.O=C(O)/C=C/C(=O)O [KETOTIFEN FUMARATE] | 0 | 0 | 0 | 0 | 1 |  |  |  | 
COc1ccc(-c2ccc3c(N4CCOCC4)nc(N4C[C@@H](C)O[C@@H](C)C4)nc3n2)cc1CO [Ku-0063794] | 0 | 0 | 0 | 0 |  |  |  |  | 
CN(C)C(=O)C(CCN1CCC(O)(c2ccc(Cl)cc2)CC1)(c1ccccc1)c1ccccc1.Cl [LOPERAMIDE HYDROCHLORIDE] | 0 | 0 | 0 | 0 | 1 |  |  |  | 
C[C@H]1Oc2cc(cnc2N)-c2c(nn(C)c2C#N)CN(C)C(=O)c2ccc(F)cc21 [LORLATINIB] | 0 | 0 | 0 | 0 |  | 0 |  |  | 
O=C1NC(=O)C(c2cnc3ccccn23)=C1c1cn2c3c(cc(F)cc13)CN(C(=O)N1CCCCC1)CC2 [LY-2090314] | 0 |  | 1 | 1 |  | 0 | 0 | 0 | 
CCOc1cc2ncc(C#N)c(Nc3ccc(OCc4ccccn4)c(Cl)c3)c2cc1NC(=O)/C=C/CN(C)C [NERATINIB] | 0 | 0 | 0 | 0 |  | 0 |  |  | 
Cc1cn(-c2cc(NC(=O)c3ccc(C)c(Nc4nccc(-c5cccnc5)n4)c3)cc(C(F)(F)F)c2)cn1 [NILOTINIB] | 0 | 1 | 1 | 0 |  | 0 | 0 | 1 | 
COc1cccc2cc(-c3nc([C@H]4CC[C@H](C(=O)O)CC4)n4ncnc(N)c34)[nH]c12 [OSI-027] | 0 | 0 | 0 | 0 |  | 1 |  |  | 
CCCS(=O)(=O)Nc1ccc(F)c(C(=O)c2c[nH]c3ncc(Cl)cc23)c1F [PLX-4720] | 0 | 0 | 0 | 0 | 1 | 0 |  |  | 
CN1CCN(C(=O)C(C)(C)c2ccc(C(=O)Nc3cn4cc(-c5cc(C(C)(C)C)cc(C(C)(C)C)c5)ccc4n3)cc2)CC1 [T3-CLK-N] | 0 | 0 | 0 | 0 | 1 |  |  |  | 
CN1CCN(C(=O)C(C)(C)c2ccc(C(=O)Nc3cn4cc(-c5ccncc5)ccc4n3)cc2)CC1 [T3-CLK] | 0 | 0 | 0 | 0 | 1 |  |  |  | 
O=C(Cc1ccc(-c2ccc(OCCN3CCOCC3)cc2)cn1)NCc1ccccc1 [TIRBANIBULIN] | 0 | 0 | 0 | 0 |  |  |  |  | 
Cn1nc(C(F)(F)F)cc1-c1cnc(N2CCc3cc(S(=O)(=O)Nc4c(F)cc(Cl)cc4F)cc(N4CCCC4=O)c32)nc1 [TP-020] | 0 | 0 | 0 | 0 | 1 | 0 |  |  | 1
